Results: ChEMBL document CHEMBL4196068, “Synthesis, molecular modeling and evaluation of α-glucosidase inhibition activity of 3,4-dihydroxy piperidines” (Eur J Med Chem, 2018)

Columns and labels:
[1] = Inhibition of Saccharomyces cerevisiae alpha-glucosidase using p-nitrophenyl-alpha-D-glucopyranoside as substrate preincubated for 15 to 20 mins followed by substrate addition measured after 45 to 60 mins by spectrophotometric analysis
Saccharomyces cerevisiae [2] = experiment: Potency index, ratio of acarbose IC50 to compound IC50 for inhibition of Saccharomyces cerevisiae alpha-glucosidase
Saccharomyces cerevisiae [3] = experiment: Potency index, ratio of miglitol IC50 to compound IC50 for inhibition of Saccharomyces cerevisiae alpha-glucosidase
Saccharomyces cerevisiae [4] = experiment: Potency index, ratio of voglibose IC50 to compound IC50 for inhibition of Saccharomyces cerevisiae alpha-glucosidase

SMILES: Nc1ccc(CCC(=O)N2CC[C@@H](O)[C@@H](O)C2)cc1 (relative stereo)
- IC50 [1]: 211 µM
- Ratio IC50 (Saccharomyces cerevisiae [2]): 2 to 3
- Ratio IC50 (Saccharomyces cerevisiae [3]): 2 to 3
- Ratio IC50 (Saccharomyces cerevisiae [4]): 2 to 3

SMILES: O=C(/C=C/c1ccsc1)N1CC[C@@H](O)[C@@H](O)C1 (relative stereo)
- IC50 [1]: 888 µM

SMILES: O=C(/C=C/c1ccsc1)Nc1ccc(CCC(=O)N2CC[C@H](O)[C@H](O)C2)cc1 (relative stereo)
- IC50 [1]: 667 µM

SMILES: Nc1ccc(CCC(=O)Nc2ccc(CCC(=O)N3CC[C@@H](O)[C@H](O)C3)cc2)cc1 (relative stereo)
- IC50 [1]: 384 µM

SMILES: O=C(CCc1ccccc1)N1CC[C@@H](O)[C@@H](O)C1 (relative stereo)
- IC50 [1]: 994 µM

SMILES: O=C(/C=C/c1ccc(C(F)(F)F)cc1)Nc1ccc(CCC(=O)N2CC[C@@H](O)[C@H](O)C2)cc1 (relative stereo)
- IC50 [1]: 710 µM

SMILES: O=C(/C=C/c1ccc(F)cc1)Nc1ccc(CCC(=O)N2CC[C@H](O)[C@H](O)C2)cc1 (relative stereo)
- IC50 [1]: 349 µM

SMILES: O=C(CCc1ccc(C(F)(F)F)cc1)Nc1ccc(CCC(=O)N2CC[C@H](O)[C@H](O)C2)cc1 (relative stereo)
- IC50 [1]: 479 µM

SMILES: O=C(/C=C/c1ccc(O)cc1)N1CC[C@@H](O)[C@@H](O)C1 (relative stereo)
- IC50 [1]: 442 µM

SMILES: O=C(/C=C/c1ccc(C(F)(F)F)cc1)Nc1ccc(CCC(=O)N2CC[C@H](O)[C@H](O)C2)cc1 (relative stereo)
- IC50 [1]: 890 µM

SMILES: O=C(Nc1ccc(CCC(=O)N2CC[C@H](O)[C@H](O)C2)cc1)c1ccsc1 (relative stereo)
- IC50 [1]: 267 µM

SMILES: O=C(CCc1ccc(O)cc1)N1CC[C@H](O)[C@@H](O)C1 (relative stereo)
- IC50 [1]: 422 µM

SMILES: Nc1ccc(CCC(=O)N2CC[C@H](O)[C@@H](O)C2)cc1 (relative stereo)
- IC50 [1]: 289 µM

SMILES: C[C@H]1O[C@H](O[C@H]2[C@H](O)[C@@H](O)[C@@H](O[C@H]3[C@H](O)[C@@H](O)C(O)O[C@@H]3CO)O[C@@H]2CO)[C@H](O)[C@@H](O)[C@@H]1N[C@H]1C=C(CO)[C@@H](O)[C@H](O)[C@H]1O (stereo partly specified) [ACARBOSE]
- IC50 [1]: 360 µM

SMILES: OCCN1C[C@H](O)[C@@H](O)[C@H](O)[C@H]1CO [MIGLITOL]
- IC50 [1]: 462 µM

SMILES: CC(C)(C)OC(=O)Nc1ccc(CCC(=O)Nc2ccc(CCC(=O)N3CC[C@@H](O)[C@H](O)C3)cc2)cc1 (relative stereo)
- IC50 [1]: 746 µM

SMILES: O=C(CCc1ccc(NS(=O)(=O)c2ccc(F)cc2)cc1)N1CC[C@H](O)[C@H](O)C1 (relative stereo)
- IC50 [1]: 749 µM

SMILES: O=C(CCc1ccsc1)N1CC[C@H](O)[C@@H](O)C1 (relative stereo)
- IC50 [1]: 152 µM

SMILES: O=C(CCc1ccc(O)cc1)Nc1ccc(CCC(=O)N2CC[C@H](O)[C@H](O)C2)cc1 (relative stereo)
- IC50 [1]: 284 µM

SMILES: OCC(CO)N[C@H]1C[C@](O)(CO)[C@@H](O)[C@H](O)[C@H]1O [VOGLIBOSE]
- IC50 [1]: 325 µM

SMILES: O=C(CCc1ccc(O)cc1)Nc1ccc(CCC(=O)N2CC[C@@H](O)[C@H](O)C2)cc1 (relative stereo)
- IC50 [1]: 488 µM

SMILES: CC(C)(C)OC(=O)Nc1ccc(CCC(=O)N2CC[C@@H](O)[C@@H](O)C2)cc1 (relative stereo)
- IC50 [1]: 663 µM

SMILES: Cn1c(CCC(=O)N2CC[C@@H](O)[C@@H](O)C2)cc2ccccc21 (relative stereo)
- IC50 [1]: 389 µM

SMILES: O=C(CCc1ccc(C(F)(F)F)cc1)N1CC[C@@H](O)[C@@H](O)C1 (relative stereo)
- IC50 [1]: 742 µM

SMILES: O=S(=O)(c1ccc(OC(F)(F)F)cc1)N1CC[C@@H](O)[C@@H](O)C1 (relative stereo)
- IC50 [1]: 465 µM

SMILES: CC(C)(C)OC(=O)Nc1ccc(CCC(=O)Nc2ccc(CCC(=O)N3CC[C@H](O)[C@H](O)C3)cc2)cc1 (relative stereo)
- IC50 [1]: 383 µM

SMILES: O=C(CCc1ccc(O)cc1)N1CC[C@@H](O)[C@@H](O)C1 (relative stereo)
- IC50 [1]: 292 µM

SMILES: O=C(CCc1ccc(NS(=O)(=O)c2ccc(C(F)(F)F)cc2)cc1)N1CC[C@H](O)[C@H](O)C1 (relative stereo)
- IC50 [1]: 103 µM
- Ratio IC50 (Saccharomyces cerevisiae [2]): 3 to 4
- Ratio IC50 (Saccharomyces cerevisiae [3]): 3 to 4
- Ratio IC50 (Saccharomyces cerevisiae [4]): 3 to 4

SMILES: Nc1ccc(CCC(=O)Nc2ccc(CCC(=O)N3CC[C@H](O)[C@H](O)C3)cc2)cc1 (relative stereo)
- IC50 [1]: 247 µM

SMILES: O=C(CCc1ccc(N(S(=O)(=O)c2ccc(C(F)(F)F)cc2)S(=O)(=O)c2ccc(C(F)(F)F)cc2)cc1)N1CC[C@H](O)[C@H](O)C1 (relative stereo)
- IC50 [1]: 594 µM
